The values that follow come from BindingDB's records for doi:10.1016/j.chembiol.2010.07.018 (University of Dundee, 2010).

Starred links: 1 amine or outer side, 2 acyl side, 3 side chain; linkers in the order of their positions; H or OH if unused. Non-standard residues stand in square brackets, D forms with d. Residues, ends and D or L forms follow the SMILES beside them. Groups on a side chain read outwards from the residue. βAsp = O=C(O)[C@H](CC(=O)[*:2])N[*:1]; NMeF = CN[C@@H](Cc1ccccc1)C(=O)O; CO = O=C([*:1])[*:2]

The target in the test is T1, Endochitinase A1 (Aspergillus fumigatus, UniProt Q873Y0).
T1 sequence (Q873Y0 whole entry): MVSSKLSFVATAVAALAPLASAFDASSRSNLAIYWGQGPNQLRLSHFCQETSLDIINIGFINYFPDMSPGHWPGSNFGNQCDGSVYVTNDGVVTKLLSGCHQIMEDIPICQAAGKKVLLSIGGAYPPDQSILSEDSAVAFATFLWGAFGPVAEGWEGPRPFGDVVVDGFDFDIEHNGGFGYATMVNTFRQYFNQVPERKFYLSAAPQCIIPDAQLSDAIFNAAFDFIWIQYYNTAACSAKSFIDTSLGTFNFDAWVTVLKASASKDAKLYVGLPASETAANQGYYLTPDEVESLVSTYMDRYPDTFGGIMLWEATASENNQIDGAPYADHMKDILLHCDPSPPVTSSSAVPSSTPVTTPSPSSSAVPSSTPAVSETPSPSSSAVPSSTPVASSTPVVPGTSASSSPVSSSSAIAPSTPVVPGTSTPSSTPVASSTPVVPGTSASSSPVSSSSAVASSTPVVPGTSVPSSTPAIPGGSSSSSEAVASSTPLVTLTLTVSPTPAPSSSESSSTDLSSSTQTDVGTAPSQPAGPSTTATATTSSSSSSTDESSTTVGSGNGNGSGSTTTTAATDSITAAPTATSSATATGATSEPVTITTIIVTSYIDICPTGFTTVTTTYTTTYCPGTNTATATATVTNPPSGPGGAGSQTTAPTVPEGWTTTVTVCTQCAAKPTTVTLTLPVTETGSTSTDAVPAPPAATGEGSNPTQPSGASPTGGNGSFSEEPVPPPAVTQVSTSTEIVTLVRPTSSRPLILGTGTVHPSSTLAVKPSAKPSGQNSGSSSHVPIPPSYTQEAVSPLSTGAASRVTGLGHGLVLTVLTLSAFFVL
Description: Enzyme Inhibition Assay. The note with it: pH 5.5; 37 °C.
On to `CNC(=O)NC(=N)NCCC[C@@H]1NC(=O)[C@@H](C)NC(=O)C[C@@H](C(=O)O)NC(=O)C[C@@H](C(=O)O)NC(=O)[C@H](Cc2ccccc2)N(C)C1=O` [(2R,5S,8S,11S,15S)-8-benzyl-2,7-dimethyl-5-[3-({[(methylcarbamoyl)amino]methanimidoyl}amino)propyl]-3,6,9,13,17-pentaoxo-1,4,7,10,14-pentaazacycloheptadecane-11,15-dicarboxylic acid] (cyclo([NMeF][βAsp][βAsp][dA]R([CO-NHMe]))), for which the IC50 (commonly the concentration that gives 50% inhibition) was above 3800 µM. `[H]/N=C(\NC)NC(=O)NC` [Argifin-Derived Fragments, 1] came in with an IC50 of 79 µM. In turn, `CCN=C(N)NC(=O)NC` [Argifin-Derived Fragments, 2] came in with a half-maximal inhibitory concentration (IC50) of 310 µM. For the compound `CCCN=C(N)NC(=O)NC` [Argifin-Derived Fragments, 3], the IC50 amounted to 62 µM.

`CCCCNC(=N)NC(=O)NC` [Argifin-Derived Fragments, 4] gave an IC50 of 38 µM.

Consider `CNC(=O)NC(=N)NC1CCCCC1` [Argifin-Derived Fragments, 5], for which the midpoint of inhibition, the IC50, lay at 42 µM. Compound `CNC(=O)NC(N)=Nc1ccccc1` [Argifin-Derived Fragments, 6] displayed an IC50 of 112 µM.

The compound `CNC(=O)NC(N)=NCc1ccccc1` [Argifin-Derived Fragments, 7] yielded an IC50 of 299 µM.
